Data set [1] concerns T6/lacZ/C1 cells (2.2 kb hGFAP-lacZ transgene). As to the kind of experiment: X-gal staining of T6/lacZ/C1 cells treated with TGF-β1, PDGF-BB and LPS. Format: cell-based, rat. Particulars: for X-gal blue staining (β-galactosidase) compared to the untreated: 0.1 to 10 ng/ml, 72 hours, X-gal one hour; for expression of a transgene operably coupled to a hGFAP promoter in HSC cell culture: summary statement. The method, then: A lacZ reporter assay kit for cell staining (InvivoGen, CA, USA) was used to detect the reporter gene activity in both stable and transient transfectants. Development of the blue end product was monitored at different time intervals (15, 30, 60, 90, and 120 minutes). The staining results were documented with a digital camera (DP12) attached to an Olympus inverted bright field microscope (IX51).
(§1) Cells were seeded into 12-well plates in full DMEM and 500 μg/ml Zeocin. Twelve hours prior to the cytokine treatment, medium was changed so that the cells were allowed to grow in low serum (0.5% FBS) DMEM. The cells at a confluence of 70-80% were incubated with various concentrations (0, 0.1, 1 and 10 […]) of recombinant human TGF-β1, PDGF-BB (BioVision, CA, USA) and 0, 0.1, 1 and 10 μg/ml lipopolysaccharide (LPS E. coli, Sigma) respectively for 0, 2, 8, 16, 24, 48 and 72 hours before they were harvested for β-galactosidase activity assay and real-time RT-PCR GFAP assay.
To determine possible induction of GFAP-lacZ expression by molecules with profibrotic and proinflammatory properties in activated HSC the T6/lacZ/C1 cells were treated with TGF-β1, PDGF-BB and LPS respectively at various concentrations (0, 0.1, 1 and 10 ng/ml) in the full DMEM medium for 72 hours. The cells were then stained with X-gal for one hour and photographed. […] In order to obtain truly quantitative data, a solution assay was employed to measure possible up-regulation of β-galactosidase activity by TGF-β1 in experiments below.

The test system is the same in data set [2]. Put plainly: Quantitative solution assay of β-galactosidase activity in T6/lacZ/C1 cell extracts. The data set is classed as cell-based, rat. The method, then:
To quantify the β-galactosidase activity in cell extracts reported in FIGS. 4 to 10, an enzyme assay kit (E2000, Promega, Wis., USA) was used to measure the specific activity of β-galactosidase, according to the manufacturer's instructions in a 96-well format. Briefly, the cells were washed twice with 1×PBS buffer (pH7.4), lysed for 15 minutes at room temperature with the reporter lysis buffer, and harvested using a cell scraper. The total cell extracts were appropriately diluted (5-10 fold), and assayed for the enzyme activity. The specific β-galactosidase activity was expressed in milliunit per milliliter (mU/ml) using a standard curve established from the β-galactosidase standard (provided with the kit). The protein concentration was measured with a BCA protein assay kit (Pierce, Ill., USA), and used to further convert the specific β-galactosidase activity from mU/ml to mU/μg total cellular protein. Six independent experiments were performed for each time and concentration data point.
as §1
A β-galactosidase activity assay kit (Promega, Wis., USA) was used to measure transgene expression level in the T6/lacZ/C1 clone, using the nontransfected T6 as a negative basal control. When grown in the full DMEM medium to 70-80% confluence, the T6/lacZ/C1 cells yielded an average reading of approximately 0.5 mU/μg, about five times of that in normal T6 cells. The basal reading in the T6 cells was not influenced by the addition of cytokines or LPS (data not shown). For comparison purpose, the β-galactosidase activity in a randomly selected C6 clone containing the 2.2 kb hGFAP-lacZ transgene (designated as C6/lacZ/C4) was measured to have an activity of about 2 mU/μg, […] of that in the T6/lacZ/C1 cells. When incubated with TGF-β1 (0 to 10 ng/ml), the C6/lacZ/C4 cells yielded an induction dynamics of 130 to 200% of the untreated control.
To quantify specific transgene response to TGF-β1, we first set up an experiment to assess possible effects that serum concentration and culture duration may have on the transgene expression. T6/lacZ/C1 cells were initially grown in DMEM with high serum (10% FBS), and then some of the cells were starved with a DMEM with low serum (0.5% FBS) for 12 hours prior to the addition of TGF-β1 (1 ng/ml). After incubation for various times (0, 2, 8, 24, 48 and 72 hours), cells were harvested for β-galactosidase activity assay. […] After 72 hours, the level slipped to 58% of the value at 0 hour (P<0.001). The assay results were depicted in FIG. 8.
To further dissect the TGF-β1 contribution to the transgene induction, we treated T6/lacZ/C1 cells grown in low serum with various concentrations of TGF-β1 (0, 0.1, 1, 10 ng/ml) and assayed the enzymatic activity for three time points (24, 48 and 72 hours). The assay results were plotted in FIG. 9. […] When the non-treatment groups were normalized to 1 and the magnitude of induction were plotted for the 10 ng/ml treatment groups at all three time points (FIG. 10), a trend of increasing induction with time was apparent.

For data set [3], the system named is endogenous GFAP mRNA in T6/lacZ/C1 cells. Put plainly: Real-time RT-PCR for endogenous rat GFAP mRNA in T6/lacZ/C1 cells. The data set is classed as cell-based. Particulars: TGF-β1 1 ng/ml. As to the method:
Total RNA was reverse transcribed to cDNA using Taqman's reverse transcription reagent (Cat. # N808-0234A total of […] of RNA in 7.7 μl nuclease-free water was added to 2 μl 10× reverse transcriptase buffer, 4.4 μl 25 mM magnesium chloride, 4 μl deoxyNTP mixtures, 1 μl random hexamers, 0.4 μl RNase inhibitor and 0.5 μl reverse transcriptase (50 U/μl) in a final reaction volume of 20 μl. The reaction was performed for 10 min at 25° C. (annealing), 30 min at 48° C. (cDNA synthesis) and 5 min at 95° C. (enzyme denaturation).
Real-time quantitative PCR was carried out with an ABI 7500 Real Time PCR System (Applied Biosystems, CA, USA). One microliter of sample cDNA was used in each PCR reaction, with the housekeeping β-actin gene as a reference for normalization. The primers and probes for rat β-actin and GFAP were purchased from Taqman's assay-on-demand database. The PCR reaction was performed under a default profile consisting of 50° C. for 2 min (UNG activation), 95° C. for 10 min (enzyme denaturation) and 40 cycles of amplification (denaturation 15 seconds, annealing and extension 60 seconds).
Relative quantitation of the target mRNA was calculated using the comparative threshold cycle (CT) methods as described in the User Bulletin #2 (ABI Prism 7700 Sequence Detection System). CT indicates the fractional cycle number at which the amount of amplified target reaches a fixed threshold within the linear phase of gene amplification. ΔCT, which reflects the difference between CT target and CT β-actin, is inversely correlated to the abundance of mRNA transcripts in the samples. ΔCT for each sample was normalized against control experiment or calibrator and expressed as ΔΔCT. Relative quantitation is given by 2^−ΔΔCT to express the up-regulation or down-regulation of the target gene under the treatments compared to the control.
It was known that GFAP, along with desmin, SMAA, and vimentin, was expressed in the clonal T6 cells (Vogel et al. (2000), J Lipid Res. 41(6):882). Naturally, the endogenous GFAP should be expressed in the T6/lacZ/C1 cells as well. In order to investigate how the endogenous GFAP expression is regulated by TGF-β1 in the T6/lacZ/C1 cells during different time course, we quantified rat GFAP mRNA level using a real-time RT-PCR method. Cells were similarly grown and treated with TGF-β1 (1 ng/ml) for various times (0, 2, 8, 16, 24, 48 and 72 hours), as described for the enzymatic assay experiments above. Total RNA was isolated from different cells and quantified as described in Materials and Methods, and the results were depicted in FIG. 11.
A general note: In qPCR the cycle at which signal appears reflects the starting amount.

Consider “TGF-β1: recombinant human TGF-β1 (BioVision), pro-fibrotic factor”, for which the “X-gal blue staining (β-galactosidase) compared to the untreated” value in data set [1] was “more intense blue staining”. The “expression of a transgene operably coupled to a hGFAP promoter in HSC cell culture” value in data set [1] was “induced in a dose-dependent manner”. Further, the “induction of β-galactosidase activity vs non-induced” value in data set [2] (1 ng/ml TGF-β1, low serum, 24 hours (P<0.05)) is recorded as “induction was seen”; in data set [2] (10 ng/ml TGF-β1, low serum, 24, 48 and 72 hours (P<0.001)) it was “Significant induction”. Moreover, the “absolute enzymatic activity (β-galactosidase)” value in data set [2] (10 ng/ml TGF-β1, 72 hours) is 0.43 mU/μg. Further, the “fold induction of β-galactosidase specific activity, non-treatment normalized to 1” value in data set [2] (10 ng/ml TGF-β1, 72 hours) was “nearly two fold”. Also, the transgene expression level result in data set [2] (TGF-β1 1 ng/ml, 0.5% FBS, 2 and 8 hours) is on record as “rapidly elevated”; in data set [2] (TGF-β1 1 ng/ml, 0.5% FBS, 48 hours), “dropped to the same level as at 0 hour”. Further, the “β-galactosidase specific activity at peak” value in data set [2] (TGF-β1 1 ng/ml, 0.5% FBS, 24 hour) was determined as 0.52 mU/μg. Besides, the “transgene expression level, % of the value at 0 hour” value in data set [2] (TGF-β1 1 ng/ml, 0.5% FBS, 72 hours) worked out at 58%. Besides, the “GFAP mRNA level relative to basal level (normalized to 1) at 0 hour” value turned out to be 0.5 fold in data set [3] (16 hour (P<0.005)), 7 fold in data set [3] (48 hours) and 8.5 fold in data set [3] (72 hours). Besides, the “GFAP mRNA level relative to basal level at 0 hour” value in data set [3] (first 24 hours) is recorded as “remained steady”.

B1: PDGF-BB: recombinant human PDGF-BB (BioVision), pro-proliferative factor (protein, UniProt P01127 82-190, looked up)
Platelet-derived growth …: SLGSLTIAEPAMIAECKTRTEVFEISRRLIDRTNANFLVWPPCVEVQRCSGCCNNRNVQCRPTQVQLRPVQVRKIEIVRKKPIFKKATVTLEDHLACKCETVAAARPVT
For B1, in data set [1], the “X-gal blue staining (β-galactosidase) compared to the untreated” value is recorded as “less pronounced response” and the “expression of a transgene operably coupled to a hGFAP promoter in HSC cell culture” value is “induced in a dose-dependent manner”.

The values above are taken from patent US7863251B2, “Hepatic stellate cell specific promoter and uses thereof” (Agency for Science, Technology and Research, priority 2005, dated 2011).
